Laboratory results taken from the kinase profiling compilation of Christmann-Franck et al. (2016).

Columns and labels:
Details in all cases: compound 10.0 µM
[1] = system: ABL1 (human), P00519 [E255K]
AURKB (human) = AURKB (human) (UniProt Q96GD4)
CSF1R (human) = CSF1R (human) (UniProt P07333)
EGFR (human) = EGFR (human) (UniProt P00533)
[2] = system: EGFR (human), P00533 [G719C]
[3] = system: EGFR (human), P00533 [T790M/L858R]
EPHB4 (human) = EPHB4 (human) (UniProt P54760)
NTRK3 (human) = NTRK3 (human) (UniProt Q16288)
NTRK3 (human), sequence (Q16288 whole entry, looked up): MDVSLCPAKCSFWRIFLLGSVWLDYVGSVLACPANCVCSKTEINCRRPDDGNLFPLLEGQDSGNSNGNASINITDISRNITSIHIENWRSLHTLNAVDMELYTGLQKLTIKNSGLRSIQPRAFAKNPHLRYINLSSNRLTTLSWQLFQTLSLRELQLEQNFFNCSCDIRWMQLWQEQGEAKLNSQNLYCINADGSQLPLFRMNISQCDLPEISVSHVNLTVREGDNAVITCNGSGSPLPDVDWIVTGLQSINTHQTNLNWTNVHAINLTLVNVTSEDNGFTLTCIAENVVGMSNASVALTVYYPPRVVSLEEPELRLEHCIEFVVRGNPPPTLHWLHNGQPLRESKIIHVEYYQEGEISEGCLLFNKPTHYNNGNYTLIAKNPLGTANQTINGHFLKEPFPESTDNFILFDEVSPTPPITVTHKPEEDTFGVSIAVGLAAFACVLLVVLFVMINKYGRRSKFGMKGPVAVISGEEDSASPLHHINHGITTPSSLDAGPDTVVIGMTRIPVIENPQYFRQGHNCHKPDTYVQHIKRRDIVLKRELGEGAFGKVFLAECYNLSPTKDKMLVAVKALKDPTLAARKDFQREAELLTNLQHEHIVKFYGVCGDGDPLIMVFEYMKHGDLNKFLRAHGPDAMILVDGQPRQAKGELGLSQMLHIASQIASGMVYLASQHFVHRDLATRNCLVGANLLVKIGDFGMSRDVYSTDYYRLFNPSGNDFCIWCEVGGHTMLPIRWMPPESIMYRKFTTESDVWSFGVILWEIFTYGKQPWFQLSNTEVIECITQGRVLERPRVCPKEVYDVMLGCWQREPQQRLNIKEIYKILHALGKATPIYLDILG

[4] = system: PIK3CA (human), P42336 [E542K]
PIK3CA (human), P42336 [E542K], sequence (P42336 whole entry E542K, looked up): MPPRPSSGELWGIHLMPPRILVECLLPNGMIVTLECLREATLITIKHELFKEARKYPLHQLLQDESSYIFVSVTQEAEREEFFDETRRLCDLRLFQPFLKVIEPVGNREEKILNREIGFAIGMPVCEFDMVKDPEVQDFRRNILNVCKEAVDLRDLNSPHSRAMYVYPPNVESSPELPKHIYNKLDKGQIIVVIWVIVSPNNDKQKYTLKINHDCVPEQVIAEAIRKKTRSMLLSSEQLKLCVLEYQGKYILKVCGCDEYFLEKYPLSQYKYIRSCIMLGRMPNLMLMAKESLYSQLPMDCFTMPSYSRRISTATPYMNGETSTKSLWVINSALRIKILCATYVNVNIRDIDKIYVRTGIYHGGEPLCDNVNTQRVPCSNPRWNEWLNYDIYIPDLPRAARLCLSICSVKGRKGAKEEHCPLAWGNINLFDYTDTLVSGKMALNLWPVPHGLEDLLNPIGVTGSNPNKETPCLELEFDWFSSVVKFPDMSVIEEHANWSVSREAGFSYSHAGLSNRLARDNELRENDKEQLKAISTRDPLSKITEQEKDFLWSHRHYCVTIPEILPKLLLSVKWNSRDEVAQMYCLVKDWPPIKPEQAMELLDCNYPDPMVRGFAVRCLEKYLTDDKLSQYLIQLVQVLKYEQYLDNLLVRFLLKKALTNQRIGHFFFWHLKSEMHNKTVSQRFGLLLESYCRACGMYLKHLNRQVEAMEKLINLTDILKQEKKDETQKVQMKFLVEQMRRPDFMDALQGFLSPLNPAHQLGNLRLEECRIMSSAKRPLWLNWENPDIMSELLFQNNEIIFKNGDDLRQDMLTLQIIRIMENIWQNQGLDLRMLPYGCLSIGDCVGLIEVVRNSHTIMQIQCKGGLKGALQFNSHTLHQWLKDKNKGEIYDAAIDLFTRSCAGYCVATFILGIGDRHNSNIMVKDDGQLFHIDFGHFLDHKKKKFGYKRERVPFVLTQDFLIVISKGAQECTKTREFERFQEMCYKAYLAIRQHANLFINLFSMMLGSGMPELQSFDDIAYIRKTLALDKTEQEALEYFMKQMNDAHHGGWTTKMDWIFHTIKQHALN

[5] = system: PIK3CA (human), P42336 [M1043I]
PIK3CA (human), P42336 [M1043I], sequence (P42336 whole entry M1043I, looked up): as the sequence (P42336 whole entry E542K, looked up) above, with K542E, M1043I counted along it

[6] = system: PIK3CA (human), P42336 [Q546K]
PIK3CA (human), P42336 [Q546K], sequence (P42336 whole entry Q546K, looked up): as the sequence (P42336 whole entry E542K, looked up) above, with K542E, Q546K counted along it

RPS6KA5 KD2 (human) = RPS6KA5 KD2 (human) (UniProt O75582)
TIE1 (human) = TIE1 (human) (UniProt P35590)
TIE1 (human), sequence (P35590 whole entry, looked up): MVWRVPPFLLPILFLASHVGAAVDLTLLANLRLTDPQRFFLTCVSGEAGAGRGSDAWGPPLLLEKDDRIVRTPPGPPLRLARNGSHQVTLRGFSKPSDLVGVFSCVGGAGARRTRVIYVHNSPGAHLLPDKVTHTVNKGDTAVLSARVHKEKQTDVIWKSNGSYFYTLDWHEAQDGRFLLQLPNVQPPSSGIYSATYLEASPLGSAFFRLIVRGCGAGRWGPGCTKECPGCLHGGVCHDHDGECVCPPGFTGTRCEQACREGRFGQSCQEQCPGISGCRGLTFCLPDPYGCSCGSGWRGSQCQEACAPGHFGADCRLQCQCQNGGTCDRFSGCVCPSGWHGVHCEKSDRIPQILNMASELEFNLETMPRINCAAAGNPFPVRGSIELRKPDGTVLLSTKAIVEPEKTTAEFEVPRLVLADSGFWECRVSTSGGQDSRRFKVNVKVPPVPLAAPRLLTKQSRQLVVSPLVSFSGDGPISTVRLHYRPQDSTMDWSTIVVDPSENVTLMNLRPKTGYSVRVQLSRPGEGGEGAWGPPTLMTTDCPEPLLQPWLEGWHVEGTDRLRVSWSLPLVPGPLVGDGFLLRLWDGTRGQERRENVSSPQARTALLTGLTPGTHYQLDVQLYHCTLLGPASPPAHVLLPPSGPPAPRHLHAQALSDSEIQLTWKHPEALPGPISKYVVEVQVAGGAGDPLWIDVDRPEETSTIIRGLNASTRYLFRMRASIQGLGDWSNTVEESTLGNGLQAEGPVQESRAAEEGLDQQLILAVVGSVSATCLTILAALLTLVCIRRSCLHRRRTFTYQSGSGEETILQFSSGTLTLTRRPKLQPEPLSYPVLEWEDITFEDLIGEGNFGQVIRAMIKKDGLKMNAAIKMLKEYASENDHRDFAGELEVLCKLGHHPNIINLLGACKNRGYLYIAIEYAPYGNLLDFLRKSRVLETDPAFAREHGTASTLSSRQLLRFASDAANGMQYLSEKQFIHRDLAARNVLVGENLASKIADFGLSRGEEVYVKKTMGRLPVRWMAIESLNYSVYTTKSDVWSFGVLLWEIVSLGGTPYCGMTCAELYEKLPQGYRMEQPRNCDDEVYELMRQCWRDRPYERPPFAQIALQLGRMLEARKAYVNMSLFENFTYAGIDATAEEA

AURKB (human), sequence (Q96GD4 whole entry, looked up): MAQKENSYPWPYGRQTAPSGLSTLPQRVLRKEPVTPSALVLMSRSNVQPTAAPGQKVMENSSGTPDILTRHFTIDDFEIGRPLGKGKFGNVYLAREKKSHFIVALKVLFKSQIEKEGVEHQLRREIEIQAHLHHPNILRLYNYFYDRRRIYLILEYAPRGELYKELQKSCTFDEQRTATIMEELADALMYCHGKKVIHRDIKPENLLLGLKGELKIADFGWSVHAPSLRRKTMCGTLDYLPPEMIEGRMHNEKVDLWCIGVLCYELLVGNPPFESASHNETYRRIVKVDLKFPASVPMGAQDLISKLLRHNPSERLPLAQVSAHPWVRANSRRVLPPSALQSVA
EPHB4 (human), sequence (P54760 whole entry, looked up): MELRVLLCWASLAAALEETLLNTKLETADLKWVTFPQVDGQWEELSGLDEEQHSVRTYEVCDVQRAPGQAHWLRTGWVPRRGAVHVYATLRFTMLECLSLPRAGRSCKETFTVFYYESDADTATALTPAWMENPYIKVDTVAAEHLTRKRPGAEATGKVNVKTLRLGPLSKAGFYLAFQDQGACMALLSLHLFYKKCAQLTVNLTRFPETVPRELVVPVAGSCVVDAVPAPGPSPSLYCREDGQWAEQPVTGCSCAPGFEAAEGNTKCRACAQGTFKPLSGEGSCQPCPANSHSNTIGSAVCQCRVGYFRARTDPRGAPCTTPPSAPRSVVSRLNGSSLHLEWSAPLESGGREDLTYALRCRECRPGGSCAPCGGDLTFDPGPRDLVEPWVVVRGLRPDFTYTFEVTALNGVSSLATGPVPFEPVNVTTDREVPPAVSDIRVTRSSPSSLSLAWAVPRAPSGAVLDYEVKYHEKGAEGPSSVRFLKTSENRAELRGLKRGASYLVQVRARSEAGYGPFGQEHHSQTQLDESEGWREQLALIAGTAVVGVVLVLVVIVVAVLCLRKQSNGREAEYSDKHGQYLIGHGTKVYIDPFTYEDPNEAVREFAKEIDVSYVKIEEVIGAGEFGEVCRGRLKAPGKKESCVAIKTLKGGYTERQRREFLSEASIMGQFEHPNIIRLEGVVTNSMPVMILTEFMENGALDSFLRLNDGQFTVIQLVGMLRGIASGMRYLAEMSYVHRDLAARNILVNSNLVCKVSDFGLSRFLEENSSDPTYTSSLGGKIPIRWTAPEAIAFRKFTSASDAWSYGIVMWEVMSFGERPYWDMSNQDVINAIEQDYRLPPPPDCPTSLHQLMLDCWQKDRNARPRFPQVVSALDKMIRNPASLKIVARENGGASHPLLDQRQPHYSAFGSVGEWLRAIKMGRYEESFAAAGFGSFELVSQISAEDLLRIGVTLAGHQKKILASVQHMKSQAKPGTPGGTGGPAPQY

CNC(=O)c1cc(Oc2ccc(NC(=O)Nc3ccc(Cl)c(C(F)(F)F)c3)cc2)cc[n+]1[O-]
per cent of control [1]: 38% | per cent of control (AURKB (human)): 0% | per cent of control (CSF1R (human)): 0% | per cent of control (EGFR (human)): 75% | per cent of control [2]: 80% | per cent of control [3]: 82% | per cent of control (EPHB4 (human)): 16% | per cent of control (NTRK3 (human)): 0.35% | per cent of control [4]: 100% | per cent of control [5]: 83% | per cent of control [6]: 100% | per cent of control (RPS6KA5 KD2 (human)): 81% | per cent of control (TIE1 (human)): 0.3%
